Data as given in publication PMC6877959, “β-Lactoglobulin Heptapeptide Reduces Oxidative Stress in Intestinal Epithelial Cells and Angiotensin II-Induced Vasoconstriction on Mouse Mesenteric Arteries by Induction of Nuclear Factor Erythroid 2-Related Factor 2 (Nrf2) Translocation” (Oxidative Medicine and Cellular Longevity, 2019).
Ends that are not written are not given here.

Columns and labels:
Caco-2 cell monolayer [1] = assay: Caco-2 cell monolayer permeation (transepithelial transport); type: in vitro ADME; conditions: UHPLC-MS/MS
Method: (§1) The colorectal adenocarcinoma (Caco-2) cell line was purchased from ATCC (Rockville, MD, USA). Cells were maintained in high-glucose DMEM (4.5 g/L) supplemented with 2 mM L-glutamine and 10% (v/v) heat-inactivated foetal bovine serum. Cells were cultured at 37°C in a humidified 5% CO2 atmosphere. To induce enterocytic Caco-2 differentiation, cells were seeded in a 12-well multiwell in transwell inserts (PET membrane, 0.4 μm pore size, 1.12 cm^2 surface area) at 2.6 × 10^5 cells/cm^2 and maintained for 21 days in complete medium. The medium was changed every second day. By 21 days, the monolayers become completely differentiated.
(§2) The integrity of the monolayers was evaluated by measurement of the transepithelial electrical resistance (TEER) using an EVOM2 epithelial voltohmmeter (World Precision Instruments, Sarasota, FL, USA). Only monolayers showing TEER higher than 300 Ω × cm^2 were then used for transport experiments. The integrity of the monolayers was checked before, during, and after the experiment. The filters were washed for 15-20 min at 37°C adding prewarmed Hank's balanced salt solution buffered with 25 mM HEPES and NaHCO3 (0.35 g/L) at pH 7.4 to the apical (0.4 mL) and to the basolateral (1.2 mL) transwell compartments, as previously described. For transport experiments, donor solution containing BRP2 peptide at the desired concentration (100-1 μM) was added to the apical compartment for the apical to basolateral (absorptive) direction. Samples from the receiving compartment were collected at different time points up to 120 min (15, 30, 60, 90, and 120 min). Samples from the donor compartment were collected at time 0 and at the end of the experiment (120 min) for the calculation of the mass balance.
(§3) Samples were stored at −20°C until UHPLC-MS/MS analyses to measure the concentration of BRP2 in both compartments (for detailed conditions, see Supporting Information ).
(§4) The apparent permeability coefficient (Papp) was calculated as described according to (1) Papp=dMR^t/dt×1/A×CD0, where MR is the amount of substance in the receiver chamber, A (cm^2) is the surface area of the barrier, and CD0 (μM) is the initial donor concentration. The reduction in donor concentration was also taken after every sampling (see Supporting Information ).
(§5) Instead, for the quantification of BRP2 in donor and receiver chamber, the stock solution was diluted with fresh HBSS to a series of concentrations ranged of 125-0.5 nM to establish the calibration curve (y = 0.000001x – 0,000363; R^2 ≥ 0.9997).
(§6) The apparent permeability values of BRP2 were calculated according to the Eq. 1. This calculation requires that the sink conditions are fulfilled, that is, the ratio CR/CD is less than 0.1 at each sampling point used in the analysis. […] The donor concentration was recalculated by subtracting the cumulative amount transported to the receiver chamber for each time interval:
(§7) CD (ti) and CR (ti) (μM): donor and receiver chamber concentrations calculated at each sample occasion (i) from the donor and receiver concentrations at the previous occasion CD (ti–1) and CR (ti–1), respectively; f=1–VS/VR: sample replacement diluition factor; VS (cm^3): sample volume; VR (cm^3): receiver chamber volume; VD (cm^3): donor chamber volume. ^[28]
(§8) recovery (%) = (CD(fin) × VD +∑ (CS(t) × VS(t)) + CR(fin) × VR(fin)) × 100 / (CD(0) × VD(0)) […]

[2] = as above; type: in vitro ADME; conditions: human, Caco-2, 21-day, transwell, apical to basolateral, HBSS 25 mM HEPES pH 7.4, 37°C, time point 120 min, UHPLC-MS/MS, means ± S.D.
Method: as §1, §2, §3, §4, §5, §6, §7, §8

Caco-2 cell monolayer [3] = assay: Immunofluorescence of Caco-2 monolayers after transport (zonulin-1, integrity); type: cell-based; conditions: after transport studies, all the concentrations tested
Method: The transwell membranes from TEER experiments were washed with PBS and fixed with 4% paraformaldehyde (PFA) for 15 min. Membranes were then washed in PBS and blocked with blocking solution (0.1% Triton, 1% BSA, 0.02% sodium azide, and 50 mM ammonium chloride) for 20 min at room temperature in the dark. Afterwards, they were incubated with an anti-zonulin 1 antibody (#402200, Invitrogen, Thermo Fisher Scientific, Waltham, MA, USA) at the final concentration of 2 μg mL^−1 at room temperature for 2 hours. Immunofluorescence staining was obtained by incubating the membranes for 90 min with Alexa Fluor 488 donkey anti-rabbit IgG (#A31573) at the final concentration of 4 μg mL^−1 (Invitrogen). The nuclei were counterstained with DAPI (1 : 2000). Membranes were cut down with an operating knife blade along the margin of the chamber and were mounted on slides using VectaMount solution (AQ Vector Laboratories, Burlingame, CA, USA). Slides were examined under a Nikon fluorescence inverted microscope (Nikon Instruments Europe, Firenze, Italy) and then analyzed through ImageJ software as previously described.
Figure S3: Fluorescence micrograph of the Caco-2 cell monolayers. Caco-2 cell monolayers treated with BRP2 (50 µM, 2 h) from TEER experiments were stained for tight junction protein expression of zonulin-1 (FITC, green). Nuclei were counterstained with DAPI (blue). […]

Papp (Caco-2 cell monolayer [1]; BRP2 10 μM, Caco-2, 21-day, transwell, apical to basolateral, HBSS 25 mM HEPES pH 7.4, 37°C, time point 120 min, means ± S.D.): 0.53 ± 0.01 10^-6 cm/s | mass balance (recovery) (Caco-2 cell monolayer [1]; Caco-2 transport, donor sampled at 0 and 120 min): more than 80% | Papp A→B at 120 min, 1 μM ([2]; BRP2 1 μM): 5.3 ± 1.5 nm/s | Papp A→B at 120 min, 50 μM ([2]; BRP2 50 μM): 2 ± 0.5 nm/s | Papp A→B at 120 min, 100 μM ([2]; BRP2 100 μM): 2.7 ± 0.7 nm/s | Caco-2 cell monolayer integrity (zonulin-1 expression) (Caco-2 cell monolayer [3]): preserved
Substance: SFNPTQL [BRP2, Ser-Phe-Asn-Pro-Thr-Gln-Leu]
